Tests used:
SMARCA2-HiBiT = target: T1, SMARCA2-HiBiT (Homo sapiens, UniProt P51531); assay: SMARCA2 HiBiT degradation assay in HeLa cells; format: cell-based; settings: 18 hours incubation; for DC50: read-out: HeLa_HiBit-SM2 DC50; for Dmax: HeLa, read-out: HeLa-HiBit-SM2 Dmax (%)
T1 construct: SMARCA2-HiBiT knock-in Hela monoclonal cell (CS302366); host or cells: HeLa monoclonal knock-in line (CRISPR HiBiT knock-in at the endogenous locus, heterozygous)
Description: (§1) HiBiT peptide knock-in of SMARCA2 in LgBiT expressing HEK293T cells was performed by CRISPR-mediated tagging system as described Promega. The homozygous HiBiT knock-in on c-terminus SMARCA2 was confirmed by sanger sequence. SMARCA2-HiBiT knock-in Hela monoclonal cell (CS302366) and SMARCA4-HiBiT knock-in Hela monoclonal cell (CS3023226) were purchased from Promega. The heterozygous HiBiT-knock-in was confirmed by sanger sequence in both SMARCA2-HiBiT and SMARCA4-HiBiT monoclonal cells.
(§2) SMARCA2 HiBiT and SMARCA4 HiBiT Degradation Assay in HeLa Cells
(§3) Dispense 10 ul aliquot of prepared Hela-SMARCA2-HiBiT or Hela-SMARCA4-HiBiT cells (1:1 ratio of cells:Trypan Blue (#1450013, Bio-Rad)) onto cell counting slide (#145-0011, Bio-Rad) and obtain cell density and cell viability using cell counter (TC20, Bio-Rad). Remove appropriate volume of resuspended cells from culture flask to accommodate 2500 cells/well @20 μL/well. Transfer Hela-HiBiT cells to 50 mL conical (#430290, Corning). Spin down at 1000 rpm for 5 min using tabletop centrifuge (SPINCHRON 15, Beckman). Discard supernatant and resuspend cell pellet in modified EMEM (#30-2003, ATCC) cell culture media containing 10% FBS (F2422-500ML, Sigma), and 1×Penicillin/Streptomycin (200 g/L) (30-002-CI, Corning) to a cell density of 125,000 cells/mL. Dispense 20 μL of resuspended Hela-HiBit cells per well in 384-well TC treated plate (#12-565-343, Thermo Scientific) using standard cassette (#50950372, Thermo Scientific) on Multidrop Combi (#5840310, Thermo Scientific) inside laminar flow cabinet. Dispense test compounds onto plates using digital liquid dispenser (D300E, Tecan). Incubate plates in humidified tissue culture incubator @37° C. for 18 hours. Add 20 μL of prepared Nano-Glo® HiBiT Lytic detection buffer (N3050, Promega) to each well of 384-well plate using small tube cassette (#24073295, Thermo Scientific) on Multidrop Combi, incubate @RT for 30-60 min. Read plates on microplate reader (Envision 2105, PerkinElmer) using 384 well Ultra-Sensitive luminescence mode. Raw data files and compound information reports are swept into centralized data lake and deconvoluted using automated scripts designed by TetraScience, Inc. Data analysis, curve-fitting and reporting done in Dotmatics Informatics Suite using Screening Ultra module.

SMARCA4-HiBiT = target: T2, SMARCA4-HiBiT (Homo sapiens, UniProt P51532); assay: SMARCA4 HiBiT degradation assay in HeLa cells; format: cell-based; settings: 18 hours incubation; for DC50: read-out: HeLa-HiBit-SM4 DC50; for Dmax: HeLa, read-out: HeLa-HiBit-SM4 Dmax (%)
T2 construct: SMARCA4-HiBiT knock-in Hela monoclonal cell (CS3023226); host or cells: HeLa monoclonal knock-in line (CRISPR HiBiT knock-in at the endogenous locus, heterozygous)
Description: as §1, §2, §3

T1 sequence (P51531 whole entry): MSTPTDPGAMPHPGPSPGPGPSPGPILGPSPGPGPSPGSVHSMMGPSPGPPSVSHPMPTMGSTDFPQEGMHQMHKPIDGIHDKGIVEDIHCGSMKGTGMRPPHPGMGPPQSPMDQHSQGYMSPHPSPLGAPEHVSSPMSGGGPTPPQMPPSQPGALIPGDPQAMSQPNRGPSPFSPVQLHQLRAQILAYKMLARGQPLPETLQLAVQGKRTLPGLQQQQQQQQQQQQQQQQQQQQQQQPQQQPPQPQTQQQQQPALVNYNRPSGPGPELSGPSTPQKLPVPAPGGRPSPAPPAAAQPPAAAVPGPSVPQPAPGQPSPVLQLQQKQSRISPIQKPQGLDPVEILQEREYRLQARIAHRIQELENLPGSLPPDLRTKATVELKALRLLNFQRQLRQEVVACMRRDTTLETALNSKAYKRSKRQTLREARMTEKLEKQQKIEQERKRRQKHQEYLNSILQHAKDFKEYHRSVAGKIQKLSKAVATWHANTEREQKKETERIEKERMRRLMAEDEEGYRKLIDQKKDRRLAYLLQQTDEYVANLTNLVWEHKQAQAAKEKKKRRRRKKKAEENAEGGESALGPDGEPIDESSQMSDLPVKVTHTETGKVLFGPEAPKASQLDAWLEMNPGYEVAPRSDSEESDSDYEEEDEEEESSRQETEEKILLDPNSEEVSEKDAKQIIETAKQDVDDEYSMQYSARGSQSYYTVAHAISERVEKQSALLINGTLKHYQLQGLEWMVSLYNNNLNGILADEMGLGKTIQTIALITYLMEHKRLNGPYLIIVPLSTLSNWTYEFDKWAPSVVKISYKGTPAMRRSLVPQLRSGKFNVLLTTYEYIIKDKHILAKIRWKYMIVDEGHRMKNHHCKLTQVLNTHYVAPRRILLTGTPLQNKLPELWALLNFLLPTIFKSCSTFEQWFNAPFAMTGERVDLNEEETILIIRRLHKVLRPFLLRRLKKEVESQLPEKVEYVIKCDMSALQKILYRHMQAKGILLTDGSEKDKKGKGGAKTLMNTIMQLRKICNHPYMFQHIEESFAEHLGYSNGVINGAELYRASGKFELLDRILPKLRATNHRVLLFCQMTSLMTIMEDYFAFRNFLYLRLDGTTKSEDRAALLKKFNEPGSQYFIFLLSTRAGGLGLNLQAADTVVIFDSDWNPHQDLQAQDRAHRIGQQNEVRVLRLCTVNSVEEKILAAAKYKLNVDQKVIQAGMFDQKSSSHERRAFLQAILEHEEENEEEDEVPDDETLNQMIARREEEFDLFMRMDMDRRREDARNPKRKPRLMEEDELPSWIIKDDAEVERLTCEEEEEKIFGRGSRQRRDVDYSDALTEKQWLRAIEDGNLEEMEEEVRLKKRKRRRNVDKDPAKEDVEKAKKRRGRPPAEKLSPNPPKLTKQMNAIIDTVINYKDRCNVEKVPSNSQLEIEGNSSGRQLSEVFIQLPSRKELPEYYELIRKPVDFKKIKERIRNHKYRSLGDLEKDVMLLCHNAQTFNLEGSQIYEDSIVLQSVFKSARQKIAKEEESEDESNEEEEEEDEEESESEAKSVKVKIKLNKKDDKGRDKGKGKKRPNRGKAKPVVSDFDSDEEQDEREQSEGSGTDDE
T2 sequence (P51532 whole entry): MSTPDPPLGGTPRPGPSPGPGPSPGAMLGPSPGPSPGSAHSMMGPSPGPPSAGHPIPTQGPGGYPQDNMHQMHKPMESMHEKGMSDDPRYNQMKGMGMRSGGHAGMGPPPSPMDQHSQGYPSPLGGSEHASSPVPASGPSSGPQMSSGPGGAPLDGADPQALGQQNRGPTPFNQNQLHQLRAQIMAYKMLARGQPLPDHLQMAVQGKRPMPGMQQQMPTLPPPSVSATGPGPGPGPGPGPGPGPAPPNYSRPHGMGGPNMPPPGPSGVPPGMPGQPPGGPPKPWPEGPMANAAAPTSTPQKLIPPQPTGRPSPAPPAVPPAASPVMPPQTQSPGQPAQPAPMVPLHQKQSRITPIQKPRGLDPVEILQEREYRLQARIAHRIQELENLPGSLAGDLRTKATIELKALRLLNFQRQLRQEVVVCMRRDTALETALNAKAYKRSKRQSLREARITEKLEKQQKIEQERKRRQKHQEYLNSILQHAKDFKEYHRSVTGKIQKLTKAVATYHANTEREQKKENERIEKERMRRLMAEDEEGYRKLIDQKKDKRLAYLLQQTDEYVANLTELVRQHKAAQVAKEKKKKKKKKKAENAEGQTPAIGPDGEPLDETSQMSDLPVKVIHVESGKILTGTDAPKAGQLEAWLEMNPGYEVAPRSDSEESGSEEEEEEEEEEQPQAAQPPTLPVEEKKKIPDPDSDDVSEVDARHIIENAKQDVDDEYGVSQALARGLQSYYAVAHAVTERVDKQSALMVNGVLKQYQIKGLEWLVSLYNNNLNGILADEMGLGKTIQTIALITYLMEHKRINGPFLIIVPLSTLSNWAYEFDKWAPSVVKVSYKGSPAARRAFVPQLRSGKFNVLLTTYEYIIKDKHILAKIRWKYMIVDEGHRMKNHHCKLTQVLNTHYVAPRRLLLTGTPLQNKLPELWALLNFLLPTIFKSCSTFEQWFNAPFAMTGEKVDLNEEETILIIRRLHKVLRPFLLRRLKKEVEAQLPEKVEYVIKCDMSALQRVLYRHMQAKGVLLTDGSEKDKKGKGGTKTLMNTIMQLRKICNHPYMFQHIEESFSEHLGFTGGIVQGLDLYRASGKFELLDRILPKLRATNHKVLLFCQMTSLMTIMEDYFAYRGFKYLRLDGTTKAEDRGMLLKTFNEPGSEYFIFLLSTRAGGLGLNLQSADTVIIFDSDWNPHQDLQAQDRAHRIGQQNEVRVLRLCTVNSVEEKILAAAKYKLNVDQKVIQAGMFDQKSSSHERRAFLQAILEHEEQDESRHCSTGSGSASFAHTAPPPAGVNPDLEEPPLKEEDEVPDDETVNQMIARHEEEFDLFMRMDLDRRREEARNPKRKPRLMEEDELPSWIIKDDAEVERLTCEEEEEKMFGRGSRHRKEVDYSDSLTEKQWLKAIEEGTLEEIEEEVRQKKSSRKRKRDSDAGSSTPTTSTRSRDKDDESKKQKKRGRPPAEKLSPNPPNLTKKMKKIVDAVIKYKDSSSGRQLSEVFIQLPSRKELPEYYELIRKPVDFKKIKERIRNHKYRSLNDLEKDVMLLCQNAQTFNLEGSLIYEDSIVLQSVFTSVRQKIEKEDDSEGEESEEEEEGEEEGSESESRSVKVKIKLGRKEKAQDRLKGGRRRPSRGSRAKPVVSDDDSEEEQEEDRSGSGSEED

**Q.** How did the DC50 (SMARCA2-HiBiT) turn out when O=C1CCC(N2C(=O)c3ccc(N4CC[C@H](CN5CCN(C(=O)N6CCN7c8cc(-c9ccccc9O)nnc8NC[C@H]7C6)CC5)[C@@H](F)C4)cc3C2=O)C(=O)N1 (stereo partly drawn) [Example 206, 2-(2,6-dioxopiperidin-3-yl)-5-[(3R,4R)-3-fluoro-4-[[4-[(10S)-4-(2-hydroxyphenyl)-1,5,6,8,12-pentazatricyclo [8.4.0.02,7]tetradeca-2(7),3,5-triene-12-carbonyl]piperazin-1-yl]methyl]piperidin-1-yl]isoindole-1,3-dione] was run?
**A.** < 10 nM

**Q.** And the Dmax (SMARCA2-HiBiT)?
**A.** > 85%

**Q.** What about the DC50 (SMARCA4-HiBiT) of the same molecule?
**A.** 10 to 100 nM

**Q.** What about the Dmax (SMARCA4-HiBiT) of the same molecule?
**A.** 50 to 75%

**Q.** What does the source list for O=C1CCC(N2C(=O)c3ccc(Nc4cnn(CCN5CCC(N6CCN7c8cc(-c9ccccc9O)nnc8NC[C@H]7C6)CC5)c4)cc3C2=O)C(=O)N1 (stereo partly drawn) [Example 245, 2-(2,6-dioxopiperidin-3-yl)-5-((1-(2-(4-((S)-2-(2-hydroxyphenyl)-5,6,6a,7,9,10-hexahydro-8H-pyrazino[1′,2′:4,5]pyrazino[2,3-c]pyridazin-8-yl)piperidin-1-yl)ethyl)-1H-pyrazol-4-yl)amino)isoindoline-1,3-dione]?
**A.** DC50 (SMARCA2-HiBiT): < 10 nM; Dmax (SMARCA2-HiBiT): 50 to 75%; DC50 (SMARCA4-HiBiT): 10 to 100 nM; Dmax (SMARCA4-HiBiT): 50 to 75%

**Q.** Which DC50 (SMARCA2-HiBiT) does the source give for O=C1CCC(N2C(=O)c3ccc(N4CC[C@H](CN5C[C@@H]6[C@H](C5)[C@H]6CN5CCN6c7cc(-c8ccccc8O)nnc7NC[C@H]6C5)[C@@H](F)C4)cc3C2=O)C(=O)N1 (stereo partly drawn) [Example 193, 2-(2,6-dioxopiperidin-3-yl)-5-[(3R,4R)-3-fluoro-4-[[(1S,5R)-6-[[(10S)-4-(2-hydroxyphenyl)-1,5,6,8,12-pentazatricyclo[8.4.0.02,7]tetradeca-2(7),3,5-trien-12-yl]methyl]-3-azabicyclo [3.1.0]hexan-3-yl]methyl]piperidin-1-yl]isoindole-1,3-dione] here?
**A.** < 10 nM

**Q.** What about the Dmax (SMARCA2-HiBiT) of the same molecule?
**A.** 75 to 85%

**Q.** And the “HeLa-HiBit-SM4 Dmax (%)” value (SMARCA4-HiBiT)?
**A.** C (C=50%<Dmax<=75%)

**Q.** And the DC50 (SMARCA4-HiBiT)?
**A.** 10 to 100 nM

**Q.** Which results are given for CC1CN(CC2CN(c3ccc4c(c3)C(=O)N(C3CCC(=O)NC3=O)C4=O)C2)CC(C)N1C(=O)N1CCN2c3cc(-c4ccccc4O)nnc3NC[C@H]2C1 (stereo partly drawn) [Example 274, 2-(2,6-dioxopiperidin-3-yl)-5-(3-((4-((S)-2-(2-hydroxyphenyl)-6,6a,7,8,9,10-hexahydro-5H-pyrazino[1 ′,2′:4,5]pyrazino[2,3-c]pyridazine-8-carbonyl)-3,5-dimethylpiperazin-1-yl)methyl)azetidin-1-yl)isoindoline-1,3-dione]?
**A.** DC50 (SMARCA2-HiBiT): < 10 nM; Dmax (SMARCA2-HiBiT): > 85%; DC50 (SMARCA4-HiBiT): < 10 nM; Dmax (SMARCA4-HiBiT): 50 to 75%

**Q.** Which results are given for O=C1CCC(N2C(=O)c3ccc(N4CCC(CN5CC6CC5CC6CN5CCN6c7cc(-c8ccccc8O)nnc7NC[C@H]6C5)CC4)cc3C2=O)C(=O)N1 (stereo partly drawn) [Example 136, 2-(2,6-dioxopiperidin-3-yl)-5-(4-((5-(((S)-2-(2-hydroxyphenyl)-5,6,6a,7,9,10-hexahydro-8H-pyrazino[1′,2′:4,5]pyrazino[2,3-c]pyridazin-8-yl)methyl)-2-azabicyclo[2.2.1]heptan-2-yl)methyl)piperidin-1-yl) isoindoline-1,3-dione]?
**A.** DC50 (SMARCA2-HiBiT): < 10 nM; Dmax (SMARCA2-HiBiT): > 85%; DC50 (SMARCA4-HiBiT): < 10 nM; Dmax (SMARCA4-HiBiT): > 85%

**Q.** Which results are given for O=C1CCC(N2C(=O)c3ccc(N4CCC(CN5CCO[C@@H](CN6CCN7c8cc(-c9ccccc9O)nnc8NC[C@H]7C6)C5)CC4)cc3C2=O)C(=O)N1 (stereo partly shown) [Example 74]?
**A.** DC50 (SMARCA2-HiBiT): < 10 nM; Dmax (SMARCA2-HiBiT): > 85%; DC50 (SMARCA4-HiBiT): < 10 nM; Dmax (SMARCA4-HiBiT): > 85%

**Q.** How did the DC50 (SMARCA2-HiBiT) turn out when O=C1CCC(N2C(=O)c3ccc(N4CC5(CC(N6C[C@@H]7[C@@H](CN8CCN9c%10cc(-c%11ccccc%11O)nnc%10NC[C@H]9C8)[C@@H]7C6)C5)C4)cc3C2=O)C(=O)N1 (stereo partly drawn) [Example 259, 2-(2,6-dioxopiperidin-3-yl)-5-(6-((1R,5S,6s)-6-(((S)-2-(2-hydroxyphenyl)-5,6,6a,7,9,10-hexahydro-8H-pyrazino[1′,2′:4,5]pyrazino[2,3-c]pyridazin-8-yl)methyl)-3-azabicyclo[3.1,0]hexan-3-yl)-2-azaspiro[3.3]heptan-2-yl)isoindoline-1,3-dione] was run?
**A.** < 10 nM

**Q.** And the Dmax (SMARCA2-HiBiT)?
**A.** > 85%

**Q.** What about the DC50 (SMARCA4-HiBiT) of the same molecule?
**A.** < 10 nM

**Q.** What about the Dmax (SMARCA4-HiBiT) of the same molecule?
**A.** 75 to 85%

**Q.** How did the DC50 (SMARCA2-HiBiT) turn out when O=C1CCC(N2C(=O)c3ccc(N4CCC5(CN6CCC(CN7CCN8c9cc(-c%10ccccc%10O)nnc9NC[C@H]8C7)CC6)CC5C4)cc3C2=O)C(=O)N1 (stereo partly drawn) [Example 189, 2-(2,6-dioxopiperidin-3-yl)-5-[6-[[4-[[(10S)-4-(2-hydroxyphenyl)-1,5,6,8,12-pentazatricyclo[8.4.0.02,7]tetradeca-2(7),3,5-trien-12-yl]methyl]piperidin-1-yl]methyl]-3-azabicyclo[4.1.0]heptan-3-yl]isoindole-1,3-dione] was run?
**A.** < 10 nM

**Q.** And the Dmax (SMARCA2-HiBiT)?
**A.** 75 to 85%

**Q.** And the DC50 (SMARCA4-HiBiT)?
**A.** < 10 nM

**Q.** And the Dmax (SMARCA4-HiBiT)?
**A.** 75 to 85%

**Q.** With CC1(CN2CCC(CN3CCN4c5cc(-c6ccccc6O)nnc5NC[C@H]4C3)CC2)CCN(c2ccc3c(c2)C(=O)N(C2CCC(=O)NC2=O)C3=O)CC1 (stereo partly drawn) [Example 226, 2-(2,6-dioxopiperidin-3-yl)-5-(4-((4-(((S)-2-(2-hydroxyphenyl)-5,6,6a,7,9,10-hexahydro-8H-pyrazino[1′,2′:4,5]pyrazino[2,3-c]pyridazin-8-yl)methyl)piperidin-1-yl)methyl)-4-methylpiperidin-1-yl)isoindoline-1,3-dione] as the molecule, how does the DC50 (SMARCA2-HiBiT) read?
**A.** < 10 nM

**Q.** What about the Dmax (SMARCA2-HiBiT) of the same molecule?
**A.** > 85%

**Q.** What about the DC50 (SMARCA4-HiBiT) of the same molecule?
**A.** < 10 nM

**Q.** What about the Dmax (SMARCA4-HiBiT) of the same molecule?
**A.** 75 to 85%

**Q.** For O=C1CCC(N2Cc3cc(CCN4CCC(N5CCC(N6CCN7c8cc(-c9ccccc9O)nnc8NC[C@H]7C6)CC5)CC4)ccc3C2=O)C(=O)N1 (stereo partly drawn) [Example 62, 3-(5-(2-(4-((S)-2-(2-hydroxyphenyl)-5,6,6a,7,9,10-hexahydro-8H-pyrazino[1′,2′:4,5]pyrazino[2,3-c]pyridazin-8-yl)-[1,4′-bipiperidin]-1′-yl)ethyl)-1-oxoisoindolin-2-yl)piperidine-2,6-dione], which DC50 (SMARCA2-HiBiT) is on record?
**A.** < 10 nM

**Q.** And the Dmax (SMARCA2-HiBiT)?
**A.** > 85%

**Q.** And the DC50 (SMARCA4-HiBiT)?
**A.** < 10 nM

**Q.** What about the Dmax (SMARCA4-HiBiT) of the same molecule?
**A.** > 85%

**Q.** For C[C@H]1CN2c3cc(-c4ccccc4O)nnc3NC[C@H]2CN1C[C@H]1[C@@H]2CN(C[C@H]3CCN(c4ccc5c(c4)C(=O)N(C4CCC(=O)NC4=O)C5)C[C@@H]3F)C[C@@H]21 (stereo partly drawn) [Example 204, 3-[5-[(3R,4R)-3-fluoro-4-[[(1S,5R)-6-[[(10S,13S)-4-(2-hydroxyphenyl)-13-methyl-1,5,6,8,12-pentazatricyclo[8.4.0.02,7]tetradeca-2,4,6-trien-12-yl]methyl]-3-azabicyclo[3.1.0]hexan-3-yl]methyl]piperidin-1-yl]-3-oxo-1H-isoindol-2-yl]piperidine-2,6-dione], which DC50 (SMARCA2-HiBiT) is on record?
**A.** < 10 nM

**Q.** What about the Dmax (SMARCA2-HiBiT) of the same molecule?
**A.** 75 to 85%

**Q.** And the DC50 (SMARCA4-HiBiT)?
**A.** 10 to 100 nM

**Q.** What about the Dmax (SMARCA4-HiBiT) of the same molecule?
**A.** 75 to 85%

**Q.** Which results are given for O=C1CCC(N2Cc3cc(N4CCN(CC5CCN(CCN6CCN7c8cc(-c9ccccc9O)nnc8NC[C@H]7C6)CC5)CC4)ccc3C2=O)C(=O)N1 (stereo partly drawn) [Example 217, 3-(5-(4-((1-(2-((S)-2-(2-hydroxyphenyl)-5,6,6a,7,9,10-hexahydro-8H-pyrazino [1′,2′:4,5]pyrazino[2,3-c]pyridazin-8-yl)ethyl)piperidin-4-yl)methyl)piperazin-1-yl)-1-oxoisoindolin-2-yl)piperidine-2,6-dione]?
**A.** DC50 (SMARCA2-HiBiT): < 10 nM; Dmax (SMARCA2-HiBiT): > 85%; DC50 (SMARCA4-HiBiT): < 10 nM; Dmax (SMARCA4-HiBiT): > 85%

**Q.** O=C1CCC(N2Cc3ccc(N4CCN(CCCN5CCC(CN6CCN7c8cc(-c9ccccc9O)nnc8NC[C@H]7C6)CC5)CC4)cc3C2=O)C(=O)N1 (stereo partly drawn) [Example 121, 3-(6-(4-(3-(4-(((S)-2-(2-hydroxyphenyl)-5,6,6a,7,9,10-hexahydro-8H-pyrazino[1′,2′:4,5]pyrazino[2,3-c]pyridazin-8-yl)methyl)piperidin-1-yl)propyl)piperazin-1-yl)-1-oxoisoindolin-2-yl)piperidine-2,6-dione] was tested. Which DC50 (SMARCA2-HiBiT) did it give?
**A.** < 10 nM

**Q.** And the Dmax (SMARCA2-HiBiT)?
**A.** > 85%

**Q.** What about the DC50 (SMARCA4-HiBiT) of the same molecule?
**A.** 10 to 100 nM

**Q.** What about the Dmax (SMARCA4-HiBiT) of the same molecule?
**A.** 75 to 85%
